The source of these data is ChEMBL document CHEMBL5291721, “A preclinical secondary pharmacology resource illuminates target-adverse drug reaction associations of marketed drugs” (Nat Commun, 2023).

Targets include Adenosine receptor A2a (Homo sapiens, UniProt P29274); Motilin receptor (Homo sapiens, UniProt O43193); Melanocortin receptor 3 (Homo sapiens, UniProt P41968).
Assay [1] concerns the target Sodium-dependent noradrenaline transporter (Homo sapiens, UniProt P23975).
Assay [2] has as its target T1, Progesterone receptor (Homo sapiens, UniProt P06401).
T1 sequence (P06401 whole entry): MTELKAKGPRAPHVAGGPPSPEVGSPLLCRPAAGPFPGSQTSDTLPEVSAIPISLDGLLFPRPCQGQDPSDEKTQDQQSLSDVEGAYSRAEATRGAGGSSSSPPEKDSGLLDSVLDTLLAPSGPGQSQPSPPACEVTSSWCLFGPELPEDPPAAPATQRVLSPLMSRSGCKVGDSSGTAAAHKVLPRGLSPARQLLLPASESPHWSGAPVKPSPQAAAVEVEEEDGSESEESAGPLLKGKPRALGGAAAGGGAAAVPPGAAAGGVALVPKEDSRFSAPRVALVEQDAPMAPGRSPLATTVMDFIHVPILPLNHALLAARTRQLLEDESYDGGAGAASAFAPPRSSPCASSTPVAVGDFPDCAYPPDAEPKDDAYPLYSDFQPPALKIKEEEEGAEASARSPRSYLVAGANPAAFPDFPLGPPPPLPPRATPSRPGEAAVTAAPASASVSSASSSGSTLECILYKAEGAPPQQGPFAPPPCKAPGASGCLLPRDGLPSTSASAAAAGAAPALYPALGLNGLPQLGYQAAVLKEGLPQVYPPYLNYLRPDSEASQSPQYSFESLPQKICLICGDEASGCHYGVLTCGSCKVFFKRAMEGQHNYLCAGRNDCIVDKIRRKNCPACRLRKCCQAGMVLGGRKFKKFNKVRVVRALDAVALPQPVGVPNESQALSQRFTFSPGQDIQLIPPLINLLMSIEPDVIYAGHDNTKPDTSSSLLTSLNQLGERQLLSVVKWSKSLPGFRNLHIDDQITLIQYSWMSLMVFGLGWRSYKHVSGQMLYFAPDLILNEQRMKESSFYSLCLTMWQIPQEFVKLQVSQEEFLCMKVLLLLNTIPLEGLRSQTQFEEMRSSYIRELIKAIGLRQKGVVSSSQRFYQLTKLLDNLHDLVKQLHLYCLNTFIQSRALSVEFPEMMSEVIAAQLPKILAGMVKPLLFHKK
Type of assay: functional.

The target in a further assay is Histamine H2 receptor (Homo sapiens, UniProt P25021). It counts as functional, cell-based.
Chain of Histamine H2 receptor (P25021 whole entry): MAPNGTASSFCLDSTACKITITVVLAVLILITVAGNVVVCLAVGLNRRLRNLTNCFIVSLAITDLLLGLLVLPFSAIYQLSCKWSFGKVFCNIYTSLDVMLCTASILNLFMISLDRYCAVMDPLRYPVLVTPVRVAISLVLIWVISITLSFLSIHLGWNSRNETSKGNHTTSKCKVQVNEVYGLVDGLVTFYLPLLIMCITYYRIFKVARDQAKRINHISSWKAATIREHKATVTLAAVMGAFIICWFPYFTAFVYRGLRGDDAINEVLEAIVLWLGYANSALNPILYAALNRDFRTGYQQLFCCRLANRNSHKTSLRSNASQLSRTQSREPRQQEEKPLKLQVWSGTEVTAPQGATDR
The target of a further assay is T2, Glucocorticoid receptor (Homo sapiens, UniProt P04150).
T2 sequence (P04150 whole entry): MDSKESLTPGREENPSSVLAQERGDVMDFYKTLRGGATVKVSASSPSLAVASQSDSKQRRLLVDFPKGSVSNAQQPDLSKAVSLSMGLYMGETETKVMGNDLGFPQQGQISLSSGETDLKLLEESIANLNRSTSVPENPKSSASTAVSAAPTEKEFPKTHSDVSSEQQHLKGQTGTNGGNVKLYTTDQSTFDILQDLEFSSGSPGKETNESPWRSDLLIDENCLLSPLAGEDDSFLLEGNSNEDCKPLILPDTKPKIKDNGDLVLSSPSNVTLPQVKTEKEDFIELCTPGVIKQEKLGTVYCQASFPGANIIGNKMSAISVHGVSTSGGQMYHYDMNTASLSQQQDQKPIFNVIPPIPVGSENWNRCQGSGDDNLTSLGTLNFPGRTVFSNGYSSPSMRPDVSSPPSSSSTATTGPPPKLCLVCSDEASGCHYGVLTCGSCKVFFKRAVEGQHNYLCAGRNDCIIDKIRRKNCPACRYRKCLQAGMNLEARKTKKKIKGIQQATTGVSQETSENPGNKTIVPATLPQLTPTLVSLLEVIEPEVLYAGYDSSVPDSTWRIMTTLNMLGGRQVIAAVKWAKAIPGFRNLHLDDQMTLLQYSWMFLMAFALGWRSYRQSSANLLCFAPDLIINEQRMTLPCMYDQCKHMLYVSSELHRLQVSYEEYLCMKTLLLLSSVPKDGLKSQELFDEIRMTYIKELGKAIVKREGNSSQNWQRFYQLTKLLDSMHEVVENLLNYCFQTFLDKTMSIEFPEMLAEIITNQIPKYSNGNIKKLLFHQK

Assay [3] addresses Gamma-aminobutyric acid receptor subunit alpha-1 (Rattus norvegicus, UniProt P62813). Type of assay: functional.
For assay [4], the target named is Beta-1 adrenergic receptor (Homo sapiens, UniProt P08588). It counts as functional.
Chain of Beta-1 adrenergic receptor (P08588 whole entry): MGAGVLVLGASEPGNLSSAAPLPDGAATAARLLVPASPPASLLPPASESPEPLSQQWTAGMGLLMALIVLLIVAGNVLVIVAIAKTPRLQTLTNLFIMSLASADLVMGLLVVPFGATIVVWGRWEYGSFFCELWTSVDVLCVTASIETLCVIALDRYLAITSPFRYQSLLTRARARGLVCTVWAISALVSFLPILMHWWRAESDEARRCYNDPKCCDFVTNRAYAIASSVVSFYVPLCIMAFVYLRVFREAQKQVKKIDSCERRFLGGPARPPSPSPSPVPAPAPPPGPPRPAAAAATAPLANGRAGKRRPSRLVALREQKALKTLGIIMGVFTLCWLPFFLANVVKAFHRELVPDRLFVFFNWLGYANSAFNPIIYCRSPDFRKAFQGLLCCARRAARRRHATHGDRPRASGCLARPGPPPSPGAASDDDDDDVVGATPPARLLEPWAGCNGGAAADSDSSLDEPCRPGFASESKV
For a further assay, the target named is T3, Thromboxane A2 receptor (Homo sapiens, UniProt P21731).
T3 sequence (P21731 whole entry): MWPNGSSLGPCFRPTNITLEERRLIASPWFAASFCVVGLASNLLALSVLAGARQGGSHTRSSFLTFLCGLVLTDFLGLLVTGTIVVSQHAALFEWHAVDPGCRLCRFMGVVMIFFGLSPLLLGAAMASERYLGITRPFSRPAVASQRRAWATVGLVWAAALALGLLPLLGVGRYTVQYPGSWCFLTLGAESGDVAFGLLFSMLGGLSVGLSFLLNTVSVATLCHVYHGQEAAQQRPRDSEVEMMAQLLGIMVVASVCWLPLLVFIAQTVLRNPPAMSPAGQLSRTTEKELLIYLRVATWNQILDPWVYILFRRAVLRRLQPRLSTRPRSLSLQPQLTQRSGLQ

The target of assay [5] is T4, 5-hydroxytryptamine receptor 2B (Homo sapiens, UniProt P41595). It counts as functional, cell-based.
T4 sequence (P41595 whole entry): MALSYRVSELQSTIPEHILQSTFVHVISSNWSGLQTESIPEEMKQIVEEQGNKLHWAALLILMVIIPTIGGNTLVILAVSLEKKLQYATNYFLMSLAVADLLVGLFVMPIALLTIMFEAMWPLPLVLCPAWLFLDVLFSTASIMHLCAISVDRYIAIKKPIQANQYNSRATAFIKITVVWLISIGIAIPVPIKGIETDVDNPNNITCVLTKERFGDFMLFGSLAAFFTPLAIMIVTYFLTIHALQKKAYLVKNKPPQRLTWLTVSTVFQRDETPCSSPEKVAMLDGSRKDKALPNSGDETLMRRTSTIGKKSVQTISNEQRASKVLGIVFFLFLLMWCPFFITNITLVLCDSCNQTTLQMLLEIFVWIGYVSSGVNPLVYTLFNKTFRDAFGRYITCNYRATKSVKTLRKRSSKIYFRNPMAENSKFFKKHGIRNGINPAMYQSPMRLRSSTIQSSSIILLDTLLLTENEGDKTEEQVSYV
The target in assay [6] is T4, 5-hydroxytryptamine receptor 2B. Type of assay: functional, cell-based. This is another data set of the same source.
Assay [7] has as its target T1, Progesterone receptor. Type of assay: functional. The source holds these as a separate data set.
Assay [8] deals with T5, Type-1 angiotensin II receptor (Homo sapiens, UniProt P30556).
T5 sequence (P30556 whole entry): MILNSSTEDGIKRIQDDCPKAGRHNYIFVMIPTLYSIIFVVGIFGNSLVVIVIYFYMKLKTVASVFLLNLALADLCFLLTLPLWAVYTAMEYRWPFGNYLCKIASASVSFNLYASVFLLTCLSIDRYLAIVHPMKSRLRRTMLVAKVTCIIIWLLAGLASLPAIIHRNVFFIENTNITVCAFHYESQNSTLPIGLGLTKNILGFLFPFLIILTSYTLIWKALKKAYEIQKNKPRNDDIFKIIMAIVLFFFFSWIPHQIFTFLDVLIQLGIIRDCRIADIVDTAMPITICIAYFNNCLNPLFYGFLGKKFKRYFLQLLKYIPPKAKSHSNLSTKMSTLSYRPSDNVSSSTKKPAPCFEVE

A value given as a limit tells only on which side of the number the result lay.
Also: assay procedure not described here.

Chain of Sodium-dependent noradrenaline transporter (P23975 whole entry): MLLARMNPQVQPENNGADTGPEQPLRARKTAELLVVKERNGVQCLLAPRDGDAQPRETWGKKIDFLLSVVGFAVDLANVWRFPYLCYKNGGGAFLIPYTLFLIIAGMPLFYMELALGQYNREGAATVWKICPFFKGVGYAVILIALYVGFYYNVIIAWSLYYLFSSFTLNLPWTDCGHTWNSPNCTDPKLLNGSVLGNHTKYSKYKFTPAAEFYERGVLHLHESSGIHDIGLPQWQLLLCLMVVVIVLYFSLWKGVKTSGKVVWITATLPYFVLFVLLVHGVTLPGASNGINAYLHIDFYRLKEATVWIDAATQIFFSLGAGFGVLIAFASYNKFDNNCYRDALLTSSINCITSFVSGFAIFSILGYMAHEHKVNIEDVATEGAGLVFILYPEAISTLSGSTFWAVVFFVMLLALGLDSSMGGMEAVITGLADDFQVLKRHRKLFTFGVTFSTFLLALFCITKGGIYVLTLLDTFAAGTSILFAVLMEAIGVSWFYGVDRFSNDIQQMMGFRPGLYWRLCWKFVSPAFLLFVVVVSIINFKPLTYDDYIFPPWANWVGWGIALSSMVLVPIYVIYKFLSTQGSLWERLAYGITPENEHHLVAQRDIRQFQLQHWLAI
Chain of Adenosine receptor A2a (P29274 whole entry): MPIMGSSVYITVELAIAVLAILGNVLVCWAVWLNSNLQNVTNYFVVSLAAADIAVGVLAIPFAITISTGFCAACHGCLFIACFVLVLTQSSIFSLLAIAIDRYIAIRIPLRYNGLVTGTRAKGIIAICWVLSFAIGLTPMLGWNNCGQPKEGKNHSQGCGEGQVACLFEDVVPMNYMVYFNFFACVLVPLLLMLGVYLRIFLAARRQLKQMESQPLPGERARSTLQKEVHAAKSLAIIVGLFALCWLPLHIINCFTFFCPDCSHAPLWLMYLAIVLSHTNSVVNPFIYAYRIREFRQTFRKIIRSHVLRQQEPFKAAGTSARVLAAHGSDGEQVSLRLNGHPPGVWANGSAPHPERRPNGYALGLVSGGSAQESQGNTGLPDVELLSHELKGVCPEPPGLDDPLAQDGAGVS
Chain of Gamma-aminobutyric acid receptor subunit alpha-1 (P62813 whole entry): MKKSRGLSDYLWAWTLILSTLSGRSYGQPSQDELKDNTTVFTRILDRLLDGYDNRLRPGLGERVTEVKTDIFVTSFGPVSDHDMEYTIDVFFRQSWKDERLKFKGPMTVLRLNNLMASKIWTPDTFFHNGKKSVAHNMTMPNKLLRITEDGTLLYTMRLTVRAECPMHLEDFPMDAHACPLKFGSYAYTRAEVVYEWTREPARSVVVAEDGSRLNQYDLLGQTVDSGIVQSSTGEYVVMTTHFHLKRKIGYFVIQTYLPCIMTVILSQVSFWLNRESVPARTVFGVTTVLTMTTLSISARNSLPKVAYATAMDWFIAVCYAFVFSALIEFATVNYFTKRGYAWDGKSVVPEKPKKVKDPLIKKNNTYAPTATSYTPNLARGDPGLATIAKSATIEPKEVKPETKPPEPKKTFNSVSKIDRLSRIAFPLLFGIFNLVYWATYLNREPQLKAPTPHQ
Chain of Melanocortin receptor 3 (P41968 whole entry): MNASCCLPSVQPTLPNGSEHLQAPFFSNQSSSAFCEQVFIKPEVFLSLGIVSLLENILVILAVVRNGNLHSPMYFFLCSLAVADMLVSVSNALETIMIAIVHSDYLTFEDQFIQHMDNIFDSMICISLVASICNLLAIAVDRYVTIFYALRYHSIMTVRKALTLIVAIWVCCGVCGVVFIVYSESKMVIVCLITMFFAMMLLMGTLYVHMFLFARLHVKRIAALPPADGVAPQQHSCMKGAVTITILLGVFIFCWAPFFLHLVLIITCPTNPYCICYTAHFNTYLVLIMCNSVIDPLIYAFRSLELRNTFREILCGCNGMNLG
Chain of Motilin receptor (O43193 whole entry): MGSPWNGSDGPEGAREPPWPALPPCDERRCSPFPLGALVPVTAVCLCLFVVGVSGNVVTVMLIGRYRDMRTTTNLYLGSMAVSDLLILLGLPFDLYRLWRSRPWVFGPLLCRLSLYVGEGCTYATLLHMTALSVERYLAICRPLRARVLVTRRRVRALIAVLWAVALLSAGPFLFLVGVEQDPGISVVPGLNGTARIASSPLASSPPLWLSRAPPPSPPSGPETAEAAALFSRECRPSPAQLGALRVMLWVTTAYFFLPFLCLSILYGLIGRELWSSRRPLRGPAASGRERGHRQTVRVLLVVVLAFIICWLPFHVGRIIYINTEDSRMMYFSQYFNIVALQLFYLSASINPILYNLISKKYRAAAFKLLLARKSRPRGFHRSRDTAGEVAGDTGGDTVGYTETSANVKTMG

As to `COc1ccc(CCNCC(O)COc2cccc(C)c2)cc1OC` (stereo unspecified) [BEVANTOLOL], the AC50 was greater than 30 µM in assay [1]; greater than 10 µM on Progesterone receptor [2]; greater than 30 µM on Histamine H2 receptor; greater than 10 µM on Glucocorticoid receptor; greater than 10 µM at Adenosine receptor A2a; greater than 10 µM on Motilin receptor. In addition, the AC50 in [3] was greater than 10 µM; in assay [4], 0.026 µM; at Thromboxane A2 receptor, greater than 10 µM; in [5], 14 µM; on Melanocortin receptor 3, greater than 10 µM; in [6] it was greater than 10 µM. In addition, the AC50 (at Progesterone receptor [7]; in [8]) was greater than 10 µM each time.

With `Brc1c(NC2=NCCN2)ccc2nccnc12` [BRIMONIDINE], the half-maximal activity concentration (AC50) (in assay [1]; at Progesterone receptor [2]; on Histamine H2 receptor; at Glucocorticoid receptor; on Adenosine receptor A2a; on Motilin receptor) was greater than 30 µM each time. Also, the half-maximal activity concentration (AC50) (in assay [3]; in assay [4]; in assay [5]; on Melanocortin receptor 3; in assay [6]; at Progesterone receptor [7]) was greater than 30 µM each time. Besides, the AC50 in [8] is greater than 30 µM.

For the compound `CC(C)(C)NCC(O)COc1cccc2c1CCC(=O)N2` (stereo unspecified) [CARTEOLOL], the AC50 (in assay [1]; on Progesterone receptor [2]; at Histamine H2 receptor; at Glucocorticoid receptor; on Adenosine receptor A2a; at Motilin receptor) was greater than 10 µM throughout. Besides, the AC50 (in assay [3]; at Thromboxane A2 receptor; in assay [5]; at Melanocortin receptor 3; in assay [6]; at Progesterone receptor [7]) was greater than 10 µM each time. In assay [8], this compound displayed an AC50 greater than 10 µM.

Turning to `NC(=O)OCC(COC(N)=O)c1ccccc1` [FELBAMATE], the AC50 (in [1]; on Progesterone receptor [2]; on Histamine H2 receptor; at Glucocorticoid receptor; on Adenosine receptor A2a; on Motilin receptor) was greater than 10 µM throughout. Moreover, the AC50 (in assay [3]; in assay [4]; at Thromboxane A2 receptor; in [5]; on Melanocortin receptor 3; in [6]) was greater than 10 µM each time. Also, the AC50 (at Progesterone receptor [7]; in [8]) was greater than 10 µM throughout.

In the case of `Fc1ccc(C(c2ccccc2)(c2ccccc2F)n2ccnc2)cc1` (stereo unspecified) [FLUTRIMAZOLE], the AC50 was greater than 30 µM in assay [1]; greater than 30 µM on Progesterone receptor [2]; greater than 30 µM at Histamine H2 receptor; greater than 30 µM at Glucocorticoid receptor; greater than 30 µM on Adenosine receptor A2a; 27 µM on Motilin receptor. For the same compound, the AC50 in assay [3] is greater than 30 µM; in assay [4] it was greater than 30 µM; at Thromboxane A2 receptor it was 30 µM; in assay [5], greater than 30 µM; on Melanocortin receptor 3, greater than 30 µM; in assay [6] it was greater than 30 µM. The AC50 (on Progesterone receptor [7]; in assay [8]) was greater than 30 µM each time.

In the case of `NC(=O)CN1CC(O)CC1=O` (stereo unspecified) [OXIRACETAM], the AC50 (in assay [1]; on Progesterone receptor [2]; at Histamine H2 receptor; at Glucocorticoid receptor; on Adenosine receptor A2a; at Motilin receptor) was greater than 30 µM in each case. For the same compound, the AC50 (in [3]; in assay [4]; at Thromboxane A2 receptor; in [5]; on Melanocortin receptor 3; in assay [6]) was greater than 30 µM throughout. For the same compound, the AC50 (on Progesterone receptor [7]; in [8]) was greater than 30 µM each time.

`C[C@@H]1O[C@@H](O[C@@H]2C=C3CC[C@@H]4[C@H](CC[C@]5(C)[C@@H](c6ccc(=O)oc6)CC[C@]45O)[C@@]3(C)CC2)[C@H](O)[C@H](O)[C@H]1O` [PROSCILLARIDIN]: the AC50 (in assay [1]; on Progesterone receptor [2]; at Histamine H2 receptor; at Glucocorticoid receptor; on Adenosine receptor A2a; at Motilin receptor) was greater than 30 µM in each case. Moreover, the AC50 (in [3]; in [4]; on Thromboxane A2 receptor; in assay [5]; at Melanocortin receptor 3; in assay [6]) was greater than 30 µM throughout. Also, the AC50 (on Progesterone receptor [7]; in assay [8]) was greater than 30 µM each time.
